Results: article PMC10955468 (Frontiers in Pharmacology, 2024)

Assays:
[1] = target: T1, TMEM206 (PAORAC/ASOR) (Homo sapiens, UniProt Q9H813); experiment: whole-cell patch clamp, HCT116; format: cell-based; settings: HCT-116; read-out: % residual current at 100 μM
T1 construct: gene PACC1; native full-length channel in HCT116 cells (whole-cell patch clamp); homo-trimer; current absent in TMEM206 knockout clones

[2] = target: T1, TMEM206 (PAORAC/ASOR); experiment: whole-cell patch clamp, HCT116; format: cell-based; settings: HCT-116, read-out: % inhibition at 100 μM

T1 sequence (Q9H813 whole entry): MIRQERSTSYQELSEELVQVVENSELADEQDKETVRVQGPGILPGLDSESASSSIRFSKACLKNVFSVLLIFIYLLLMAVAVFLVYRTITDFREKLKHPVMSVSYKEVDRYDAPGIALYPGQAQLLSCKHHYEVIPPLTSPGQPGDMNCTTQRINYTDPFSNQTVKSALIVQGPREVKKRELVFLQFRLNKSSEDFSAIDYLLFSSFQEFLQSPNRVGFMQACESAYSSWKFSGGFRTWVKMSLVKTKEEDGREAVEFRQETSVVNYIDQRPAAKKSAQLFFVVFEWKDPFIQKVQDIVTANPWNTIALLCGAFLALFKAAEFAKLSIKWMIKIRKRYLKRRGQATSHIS

Row | remaining activity at 100 µM [1] [%] | inhibition at 100 µM [2] [%] | SMILES
1 | 38 |  | O=C(O)c1cccnc1Nc1cccc(C(F)(F)F)c1 [niflumic acid]
2 | 53 |  | Cc1cc(Cl)ccc1OC(C)C(=O)Nc1cc(Cl)ccc1C(=O)O (stereo not drawn) [LBA, 4-chloro-2-(2-(4-chloro-2-methylphenoxy)propanamido)benzoic acid]
3 |  | 28 | O=C(O)c1ccccc1Nc1cccc(C(F)(F)F)c1 [flufenamic acid]
